According to the NIST ThermoML archive (doi:10.1016/j.fluid.2014.03.008):
Numbers after ± are expanded uncertainties.

Legend:
[1] = refractive index (Na D-line) (dimensionless); conditions: 101.33 kPa, Liquid, Standard Abbe refractometry
[2] = Liquid; for mass density: 101.33 kPa, Vibrating tube method; for Normal boiling temperature: Ebulliometric method (Recirculating still)

SMILES | refractive index ([1]; 293.15 K) | mass density ([2]; 293.15 K) [kg/m3] | Normal boiling temperature [2] [°C] | mass density ([2]; 298.15 K) [kg/m3] | refractive index ([1]; 298.15 K)
CC(=O)c1ccccc1 [acetophenone] | 1.5361 ± 0.012 | 1027.9 ± 0.9 | 202.0 ± 0.2 |  | 
CCCC(=O)O [butanoic acid] | 1.3982 ± 0.012 |  | 163.7 ± 0.2 | 952.6 ± 0.24 | 
CCOC(=O)CC(=O)OCC [diethyl 1,3-propanedioate] | 1.4135 ± 0.012 | 1055.25 ± 0.95 | 199.90 ± 0.2 |  | 
CCCC(=O)OCC [ethyl butanoate] |  |  | 121.40 ± 0.2 | 873.25 ± 0.7 | 1.3891 ± 0.012

Results, then the compound that gave them:

refractive index ([1]; 293.15 K) | mass density ([2]; 293.15 K) [kg/m3] | Normal boiling temperature [2] [°C] | mass density ([2]; 298.15 K) [kg/m3] | refractive index ([1]; 298.15 K) | SMILES
1.4125 ± 0.012 | 877.15 ± 0.24 | 146.2 ± 0.2 |  |  | CCCCC(=O)OCC [ethyl pentanoate]
1.428 ± 0.012 |  | 195.1 ± 0.2 | 825.95 ± 0.24 |  | CCCCCCCCO [octan-1-ol]
1.3325 ± 0.012 | 999.7 ± 0.08 | 100.10 ± 0.2 |  |  | O [water]
